Converted amounts (≈) assume the structure as drawn.
Legend:
[1] = tested on: Mycobacterium tuberculosis H37 Rv; assay: Antibacterial activity against a tubercle bacillus, two-fold dilution in Kirchner liquid medium; details: Kirchner medium with 10% bovine serum, 37° C., 4 weeks
[2] = tested on: Mycobacterium smegmatis ATCC 607; assay: Antibacterial activity, standard method of Japan Society of Chemotherapy (Table 2); format: cell-based; details: Mycolicibacterium smegmatis, ATCC607, read-out: Minimal inhibitory concentration
Source text: (§1) Derivative No. in Table 2 corresponds to derivative No. in Table 1.

[3] = tested on: Bacillus subtilis IFO 3134; assay: as above; format: cell-based; details: IFO3134, read-out: Minimal inhibitory concentration
Source text: as §1

[4] = tested on: Micrococcus luteus IFO 12708; assay: as above; format: cell-based; details: IFO12708, read-out: Minimal inhibitory concentration
Source text: as §1

[5] = tested on: Klebsiella pneumoniae IFO 3512; assay: as above; format: cell-based; details: IFO3512, read-out: Minimal inhibitory concentration
Source text: as §1

[6] = tested on: Escherichia coli IFO 12734; assay: as above; format: cell-based; details: IFO12734, read-out: Minimal inhibitory concentration
Source text: as §1

[7] = tested on: Staphylococcus aureus IFO 12732; assay: as above; format: cell-based; details: IFO12732, read-out: Minimal inhibitory concentration
Source text: as §1

[8] = Plasma concentration after oral administration to mice, bioassay with Micrococcus luteus IFO 12708; format: in vivo, ddY male mice; details: mouse, 20 mg/kg
Protocol: The derivatives No. 4 and No. 11 shown in Table 1 were orally administered to ddY male mice (7 weeks), respectively, in a dose of 20 mg/kg. The concentration of the test compound in the plasma was measured by a bioassay method employing Micrococcus luteus IFO 12708 as an assay bacterium according to a usual manner. The results are as follows: As for the derivative No. 4, the concentrations in the plasma after 1 hour, 3 hours, 5 hours and 8 hours from the administration were 17.0 μg/ml, 13.3 μg/ml, 14.5 μg/ml, 4.2 μg/ml, respectively. As for the derivative No. 11, the concentrations in the plasma after 1 hour, 3 hours, 5 hours and 8 hours from the administration were 17.3 μg/ml, 16.2 μg/ml, 13.8 μg/ml and 10.1 μg/ml, respectively.

[9] = tested on: Mycobacterium tuberculosis H37 Rv; assay: Repeated treatment test of mice infected with tuberculosis, survival on fortieth day (groups of 10 mice); details: oral, 200 μg/mouse

Row | Structure (SMILES) | Minimal inhibitory concentration ([1]; Table 3) | MIC [2] | MIC [3] | MIC [4] | MIC [5] | MIC [6] | MIC [7] | Minimal inhibitory concentration ([1]; Table 4) | concentration at 1 h ([8]; 1 hour) | concentration at 3 h ([8]; 3 hours) | concentration at 5 h ([8]; 5 hours) | concentration at 8 h ([8]; 8 hours) | Survival rate [9] | dead mice [9]
1 | COc1c(N2CCCC2)ccc2nc3c4c5c6c(C)c(O)c4c(=O)c(c-3oc12)NC(=O)C(C)=CC=CC(C)C(O)C(C)C(O)C(C)C(OC(C)=O)C(C)C(OC)C=COC(C)(O6)C5=O (stereo not drawn) [Derivative No. 1] | 0.017 µg/mL (≈ 0.0192 µM) | 2.5 µg/mL (≈ 2.83 µM) | 0.16 µg/mL (≈ 0.181 µM) | 0.04 µg/mL (≈ 0.0452 µM) | > 10 µg/mL | > 10 µg/mL | ≤ 0.02 µg/mL | – | – | – | – | – | – | –
2 | COc1c(N2CCN(C)CC2)ccc2nc3c4c5c6c(C)c(O)c4c(=O)c(c-3oc12)NC(=O)C(C)=CC=CC(C)C(O)C(C)C(O)C(C)C(OC(C)=O)C(C)C(OC)C=COC(C)(O6)C5=O (stereo not drawn) [Derivative No. 2] | 0.15 µg/mL (≈ 0.164 µM) | 1.25 µg/mL (≈ 1.37 µM) | ≤ 0.02 µg/mL | ≤ 0.02 µg/mL | 2.5 µg/mL (≈ 2.74 µM) | 2.5 µg/mL (≈ 2.74 µM) | ≤ 0.02 µg/mL | – | – | – | – | – | – | –
3 | COc1c(N2CCN(CC(C)C)CC2)ccc2nc3c4c5c6c(C)c(O)c4c(=O)c(c-3oc12)NC(=O)C(C)=CC=CC(C)C(O)C(C)C(O)C(C)C(OC(C)=O)C(C)C(OC)C=COC(C)(O6)C5=O (stereo not drawn) [Derivative No. 3] | 0.017 µg/mL (≈ 0.0178 µM) | 1.25 µg/mL (≈ 1.31 µM) | 0.04 µg/mL (≈ 0.0419 µM) | 0.08 µg/mL (≈ 0.0838 µM) | > 10 µg/mL | > 10 µg/mL | ≤ 0.02 µg/mL | – | – | – | – | – | – | –
4 | CCOc1c(N2CCN(C)CC2)ccc2nc3c4c5c6c(C)c(O)c4c(=O)c(c-3oc12)NC(=O)C(C)=CC=CC(C)C(O)C(C)C(O)C(C)C(OC(C)=O)C(C)C(OC)C=COC(C)(O6)C5=O (stereo not drawn) [Derivative No. 5] | 0.035 µg/mL (≈ 0.0378 µM) | 1.25 µg/mL (≈ 1.35 µM) | ≤ 0.02 µg/mL | ≤ 0.02 µg/mL | 2.5 µg/mL (≈ 2.7 µM) | 2.5 µg/mL (≈ 2.7 µM) | ≤ 0.02 µg/mL | – | – | – | – | – | – | –
5 | CCOc1c(N2CCN(CC)CC2)ccc2nc3c4c5c6c(C)c(O)c4c(=O)c(c-3oc12)NC(=O)C(C)=CC=CC(C)C(O)C(C)C(O)C(C)C(OC(C)=O)C(C)C(OC)C=COC(C)(O6)C5=O (stereo not drawn) [Derivative No. 6] | – | 0.63 µg/mL (≈ 0.669 µM) | ≤ 0.02 µg/mL | ≤ 0.02 µg/mL | 2.5 µg/mL (≈ 2.66 µM) | 5 µg/mL (≈ 5.31 µM) | ≤ 0.02 µg/mL | 0.008 µg/mL (≈ 0.0085 µM) | – | – | – | – | – | –
6 | CCOc1c(N2CCN(C(C)C)CC2)ccc2nc3c4c5c6c(C)c(O)c4c(=O)c(c-3oc12)NC(=O)C(C)=CC=CC(C)C(O)C(C)C(O)C(C)C(OC(C)=O)C(C)C(OC)C=COC(C)(O6)C5=O (stereo not drawn) [Derivative No. 7] | 0.017 µg/mL (≈ 0.0178 µM) | 1.25 µg/mL (≈ 1.31 µM) | ≤ 0.02 µg/mL | ≤ 0.02 µg/mL | 5 µg/mL (≈ 5.23 µM) | 5 µg/mL (≈ 5.23 µM) | ≤ 0.02 µg/mL | – | – | – | – | – | – | –
7 | CCCOc1c(N2CCCC2)ccc2nc3c4c5c6c(C)c(O)c4c(=O)c(c-3oc12)NC(=O)C(C)=CC=CC(C)C(O)C(C)C(O)C(C)C(OC(C)=O)C(C)C(OC)C=COC(C)(O6)C5=O (stereo not drawn) [Derivative No. 9] | 0.035 µg/mL (≈ 0.0384 µM) | 1.25 µg/mL (≈ 1.37 µM) | 0.08 µg/mL (≈ 0.0877 µM) | 0.08 µg/mL (≈ 0.0877 µM) | > 10 µg/mL | > 10 µg/mL | 0.04 µg/mL (≈ 0.0439 µM) | – | – | – | – | – | – | –
8 | CCCOc1c(N2CCN(CC(C)C)CC2)ccc2nc3c4c5c6c(C)c(O)c4c(=O)c(c-3oc12)NC(=O)C(C)=CC=CC(C)C(O)C(C)C(O)C(C)C(OC(C)=O)C(C)C(OC)C=COC(C)(O6)C5=O (stereo not drawn) [Derivative No. 10] | 0.07 µg/mL (≈ 0.0712 µM) | 1.25 µg/mL (≈ 1.27 µM) | 0.16 µg/mL (≈ 0.163 µM) | 0.16 µg/mL (≈ 0.163 µM) | > 10 µg/mL | > 10 µg/mL | 0.04 µg/mL (≈ 0.0407 µM) | – | – | – | – | – | – | –
9 | COC1C=COC2(C)Oc3c(C)c(O)c4c(=O)c(c5oc6c(OC(C)C)c(N7CCCC7)ccc6nc-5c4c3C2=O)NC(=O)C(C)=CC=CC(C)C(O)C(C)C(O)C(C)C(OC(C)=O)C1C (stereo not drawn) [Derivative No. 11] | 0.017 µg/mL (≈ 0.0186 µM) | 1.25 µg/mL (≈ 1.37 µM) | 0.08 µg/mL (≈ 0.0877 µM) | 0.04 µg/mL (≈ 0.0439 µM) | > 10 µg/mL | > 10 µg/mL | ≤ 0.02 µg/mL | – | 17300 ng/mL | 16200 ng/mL | 13800 ng/mL | 10100 ng/mL | – | –
10 | CCN1CCN(c2ccc3nc4c5c6c7c(C)c(O)c5c(=O)c(c-4oc3c2OC(C)C)NC(=O)C(C)=CC=CC(C)C(O)C(C)C(O)C(C)C(OC(C)=O)C(C)C(OC)C=COC(C)(O7)C6=O)CC1 (stereo not drawn) [Derivative No. 12] | 0.017 µg/mL (≈ 0.0178 µM) | 1.25 µg/mL (≈ 1.31 µM) | ≤ 0.02 µg/mL | ≤ 0.02 µg/mL | 5 µg/mL (≈ 5.23 µM) | 5 µg/mL (≈ 5.23 µM) | ≤ 0.02 µg/mL | – | – | – | – | – | – | –
11 | COC1C=COC2(C)Oc3c(C)c(O)c4c(=O)c(c5oc6c(OC(C)C)c(N7CCN(CC(C)C)CC7)ccc6nc-5c4c3C2=O)NC(=O)C(C)=CC=CC(C)C(O)C(C)C(O)C(C)C(OC(C)=O)C1C (stereo not drawn) [Derivative No. 13] | 0.07 µg/mL (≈ 0.0712 µM) | 1.25 µg/mL (≈ 1.27 µM) | 0.16 µg/mL (≈ 0.163 µM) | 0.16 µg/mL (≈ 0.163 µM) | > 10 µg/mL | > 10 µg/mL | 0.04 µg/mL (≈ 0.0407 µM) | – | – | – | – | – | 100% | there was not observed any dead mouse
12 | COC1C=COC2(C)Oc3c(C)c(O)c4c(=O)c(c5oc6c(OCC(C)C)c(N7CCN(CC(C)C)CC7)ccc6nc-5c4c3C2=O)NC(=O)C(C)=CC=CC(C)C(O)C(C)C(O)C(C)C(OC(C)=O)C1C (stereo not drawn) [Derivative No. 14] | – | 0.63 µg/mL (≈ 0.632 µM) | 0.08 µg/mL (≈ 0.0802 µM) | 0.31 µg/mL (≈ 0.311 µM) | > 10 µg/mL | > 10 µg/mL | 0.08 µg/mL (≈ 0.0802 µM) | – | – | – | – | – | – | –
13 | COc1c(N2CCCC2)cc(C)c2nc3c4c5c6c(C)c(O)c4c(=O)c(c-3oc12)NC(=O)C(C)=CC=CC(C)C(O)C(C)C(O)C(C)C(OC(C)=O)C(C)C(OC)C=COC(C)(O6)C5=O (stereo not drawn) [Derivative No. 15] | 0.008 µg/mL (≈ 0.00891 µM) | 1.25 µg/mL (≈ 1.39 µM) | 0.08 µg/mL (≈ 0.0891 µM) | 0.04 µg/mL (≈ 0.0445 µM) | > 10 µg/mL | > 10 µg/mL | 0.04 µg/mL (≈ 0.0445 µM) | – | – | – | – | – | – | –
14 | COc1c(N2CCN(C)CC2)cc(C)c2nc3c4c5c6c(C)c(O)c4c(=O)c(c-3oc12)NC(=O)C(C)=CC=CC(C)C(O)C(C)C(O)C(C)C(OC(C)=O)C(C)C(OC)C=COC(C)(O6)C5=O (stereo not drawn) [Derivative No. 16] | – | 1.25 µg/mL (≈ 1.35 µM) | ≤ 0.02 µg/mL | ≤ 0.02 µg/mL | 5 µg/mL (≈ 5.39 µM) | 5 µg/mL (≈ 5.39 µM) | ≤ 0.02 µg/mL | – | – | – | – | – | – | –
15 | COc1c(N2CCN(CC(C)C)CC2)cc(C)c2nc3c4c5c6c(C)c(O)c4c(=O)c(c-3oc12)NC(=O)C(C)=CC=CC(C)C(O)C(C)C(O)C(C)C(OC(C)=O)C(C)C(OC)C=COC(C)(O6)C5=O (stereo not drawn) [Derivative No. 17] | 0.07 µg/mL (≈ 0.0722 µM) | 1.25 µg/mL (≈ 1.29 µM) | 0.04 µg/mL (≈ 0.0413 µM) | 0.08 µg/mL (≈ 0.0825 µM) | > 10 µg/mL | > 10 µg/mL | ≤ 0.02 µg/mL | – | – | – | – | – | 100% | there was not observed any dead mouse
16 | CO[C@H]1/C=C/O[C@@]2(C)Oc3c(C)c(O)c4c(O)c(c(/C=N/N5CCN(C)CC5)c(O)c4c3C2=O)NC(=O)/C(C)=C\C=C\[C@H](C)[C@H](O)[C@@H](C)[C@@H](O)[C@@H](C)[C@H](OC(C)=O)[C@@H]1C [Rifampicin, reference compound] | 0.6 µg/mL (≈ 0.729 µM) | 10 µg/mL (≈ 12.2 µM) | 0.08 µg/mL (≈ 0.0972 µM) | ≤ 0.02 µg/mL | 5 µg/mL (≈ 6.08 µM) | > 10 µg/mL | ≤ 0.02 µg/mL | 0.3 µg/mL (≈ 0.365 µM) | – | – | – | – | 80% | –
